The results in this text go back to patent publication US20160324174A1, “EDIBLE COATING FOR PRESERVING PIECES OF FRUIT, PRODUCTION METHOD AND APPLICATION THEREOF” (PRODUCTION AND INNOVATION ON EDIBLE COATINGS, S.L., priority 2014, published 2016).

The test system of this assay is pieces of apple (Golden delicious). Description: Sensory evaluation of coated pieces of apple during 15 days storage at 4° C. The settings on record: for Hydration: scale 1 to 10, 10 = complete hydration of the product surface; for Texture: scale 1 to 10, 10 = firm crisp texture; for Color: sensory scale 1 to 10, 10 = total absence of browning. The method, then: Apples of the Golden delicious variety were used. They were washed on the surface and disinfected by immersion in a sodium hypochlorite (80 ppm) solution. After disinfection, the apples were cored and cut manually into […] (quarters), which were immediately coated. […] In any of the cases, the components were dissolved in water, by constant stirring, until completely dissolved, the temperature of both the water and of the solution being held at 6° C. until their use as coating. The pieces of apple were immersed for 1 minute in each of the solutions. In the case of the control sample, the pieces of apple were immersed in cold water for the same period of time. After this, the samples were drained for 1 minute in order to remove any excess coating that might remain on the surface of the fruit. Finally, the fruit was manually packaged in plastic tubs (PET), without the use of a modified atmosphere, and stored at 4° C. for 15 days. […] The scale of evaluation was from 1 to 10, 10 being the highest mark awarded to the parameter evaluated, namely, a product with the same quality as the freshly cut fruit, and 1 being a very bad quality product (rejectable).

Setting [1] is: apple pieces, day 1 in storage at 4° C.
[2] abbreviates: apple pieces, day 8 in storage at 4° C.
[3] abbreviates: apple pieces, day 15 in storage at 4° C.

Take “calcium ascorbate [Calcium ascorbate (6% p/p)]”: the “appearance of first symptoms of dehydration” value (apple pieces in storage at 4° C.) was “from the first week of storage”. The “maintenance of the original color of the apple” value (apple pieces, 15 days storage at 4° C.) is on record as “throughout almost all of the period of storage”. In addition, under setting [1], the General appearance result is given as “Good”, the Hydration was found to be 10, the Texture was determined as 10 and the Color is 10. In addition, under setting [2], the General appearance result was “Dehydrated”, the Hydration is 5, the Texture is reported as 8 and the Color is 9. Under setting [3], the General appearance entry is given as “Very dehydrated,”, the Hydration is 4, the Texture turned out to be 7 and the Color stood at 8.
